Data: paper PMC7039890, “Aedes aegypti Odorant Binding Protein 22 selectively binds fatty acids through a conformational change in its C-terminal tail” (Scientific Reports, 2020)
“And” between values parts separate entries of the source, which are not always exact repeats. Identical values can stand only once. Like-named read-outs stand apart in the source and are kept apart here.

Tests used:
[1] = target: T1, AeOBP22 (Aedes aegypti, UniProt Q1HRL7); assay: 1-NPN fluorescent reporter binding; conditions: result in words
T1 construct: The mature form of AeOBP22 lacking the N-terminal signal peptide was expressed and purified as previously described; made in house
T1 sequence (Q1HRL7 17-138): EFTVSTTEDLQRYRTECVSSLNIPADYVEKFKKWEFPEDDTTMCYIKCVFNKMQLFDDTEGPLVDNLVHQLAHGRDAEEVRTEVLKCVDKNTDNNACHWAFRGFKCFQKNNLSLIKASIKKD

[2] = target: T1, AeOBP22; assay: NMR 1H-15N HSQC ligand screening / chemical shift perturbation; format: binding; conditions: protein 100 μM, sodium phosphate pH 6.5; for binding to AeOBP22 judged by NMR: result in words
Protocol: NMR experiments were performed at 25 °C on a either a Varian 900 MHz DD2, Varian INOVA 600 MHz or Bruker Avance Neo 600 MHz spectrometer. Samples for NMR were dissolved in sodium phosphate (20 mM, pH 6.5) and 90% H2O/10% D2O, with DSS (4,4-dimethyl-4-silapentane-1-sulfonic acid) (80 μM) added as an internal reference,[90]. For ligand screening, protein concentration was 100 μM and ligands were added to a concentration of 200–500 μM. For chemical shift assignments, relaxation rate measurements and structure calculations, protein concentrations were in the 400–700 μM range. All NMR experiments were collected using non uniform sampling methods[91] using the Poisson-gap sampling schemes implemented by Hyberts et al.[92] with a sampling density of 25–50%. Data were processed using the istHMS package v2111[93],[94] in combination with NmrPipe[95] and analyzed using Ccpnmr Analysis v 2.4.2[96].
Chemical shift assignments for the complex with arachidonic acid and the backbone assignments for the apo-protein were previously reported. Backbone ^1H, ^15N, ^13Cα and ^13Cβ assignments for nonadecanoic, linoleic acid (pH 4.5 and pH 6.5), and decanoic acids were made in the same way. All other backbone amide assignments were made by following chemical shift trajectories as a function of ligand concentration or chain length. Normalized chemical shift differences are reported as[97],[98]1 Δδ=(ΔδH^2+0.14∗ΔδN^2)

[3] = target: T1, AeOBP22; assay: DAF based competition binding assay (recovery of DAF fluorescence by fatty acids); conditions: for Kd: pH 8.0 (HEPES 50 mM pH 8.1), 25 °C, ± s.d., n = 3
Protocol: Binding affinities were determined by monitoring the recovery of DAF florescence as a function of fatty acid concentration. Stock solutions of fatty acid were made by dissolving the fatty acid in 100% DMSO, and then making a 1:1000 dilution into HEPES (50 mM pH 8.1). Samples were vortexed prior to each titration point. The protein/DAF solution contained fixed concentrations of DAF (100 nM) and AeOBP22 (1000 nM).
As there is a single binding site for the fatty acid and the effect of fluorescence quenching can be completely reversed by increasing concentrations of fatty acids, we concluded that the fatty acid is directly competitive with binding of the DAF reporter. Therefore, the term for KD in Eq. 2 can be replaced with Eq. 3.3 Kapp=KD(1+I/KI) where I is the concentration of the competitor and KI is the dissociation constant of the competitor. The emission maxima were fit using Eq. 2 substituted into Eq. 1, with the concentration of the protein and DAF fixed at their known concentrations.

[4] = target: T1, AeOBP22; assay: DAF fluorescence quenching titration with AeOBP22 (direct binding); conditions: for Kd: direct titration, fluorescence quenching at 513 nm, n = 7
Protocol: All fluorescence experiments were recorded at 25 °C on a Horiba Fluorolog 3–1–1 spectrofluorometer. DAF spectra were acquired using an excitation wavelength of 490 nm and the emission recorded between 500 and 560 nm at 1 nm intervals with an integration time of 1 s and slit widths of 2 nm. Stock solutions of DAF (Thermo Fisher, Batch D-109) were prepared in methanol with potassium hydroxide (0.2 M) and the concentration measured by UV spectroscopy using an extinction coefficient of 88000 M^−1 cm^−1 at 497 nm provided in the certificate of analysis. A 1:100 dilution was made into HEPES (50 mM, pH 8.1) and the sample vortexed and checked by UV to verify the DAF concentration. A solution of DAF (~80–100 nM) was titrated with increasing AeOBP22 to a final concentration of ~4 μM. The fluorescence intensity (cps) at the emission maxima (513 nm) was plotted against the total concentration of AeOBP22 and the KD for DAF was determined by fitting the raw fluorescence intensity for each replicate to Eq. (1):2 Fi=F0(1−([PT+LT+KD]−[PT+LT+KD]^2−4PTLT)/2LT)−Fmin where Fi is the measured fluorescence, F0 is the initial fluorescence in the absence of any protein, PT is the total protein, LT is the total concentration of DAF, and Fmin is the residual fluorescence after maximal quenching by the protein.

[5] = target: T1, AeOBP22; assay: DAF based competition binding assay (recovery of DAF fluorescence by fatty acids)
[6] = DAF competition, DAF 100 nM, protein 1000 nM, read-out: KD (nM) for binding of fatty acids to AeOBP22
[7] = KD (nM) for binding of fatty acids to AeOBP22, DAF competition, DAF 100 nM, protein 1000 nM
[8] = DAF competition, DAF 100 nM, protein 1000 nM, pH 8.0, n = 3, read-out: KI (dissociation constant of the competitor)

c1ccc(Nc2cccc3ccccc23)cc1 [1-NPN] was tested, and the “binding of 1-NPN reporter to AeOBP22” value [1] was “bound with low affinity”.

In the case of CCCCCCCC/C=C\CCCCCCCC(=O)OC[C@@H](O)COP(=O)(O)O [C16-LPA, lyso-phosphatidic acid], the “binding to AeOBP22 judged by NMR” value [2] is reported as “failed to identify”.

With O=C(O)CCCCCCCCCCCCCCCO [C16-OH, 16-hydroxy-hexadecanoic acid] the “competition for binding of the fluorescent reporter (DAF)” value ([3]; result in words) was “does not compete”.

CCCCCCCCCCCCCCCC(=O)O [C16:0, palmitic acid] showed a Kd [3, 6] of 689 ± 89 nM.

Compound CCCCCC/C=C\CCCCCCCC(=O)O [C16:1, palmitoleic acid] has a Kd [3, 6] of 175 ± 41 nM.

In the case of CCCCCCCC/C=C\CCCCCCCC(=O)O [C18:1, Oleic acid], the Kd [3, 6] is reported as 85 nM and 84 nM.

For CCCCC/C=C\C/C=C\CCCCCCCC(=O)O [C18:2, linoleic acid], the Ki [3] was 104 ± 30 nM and the Kd [3, 7] was 104 ± 30 nM.

In the case of CCCCC/C=C\C/C=C\C/C=C\C/C=C\CCCC(=O)O [C20:4, arachidonic acid], the Ki [3] is reported as 286 ± 29 nM, the Kd [3, 7] is reported as 286 ± 29 nM and the “binding to AeOBP22 judged by NMR” value [2] is reported as “binding occurs with high affinity”.

With CCCCCCCCCCCC(=O)Nc1ccc2c(c1)C(=O)OC21c2ccc(O)cc2Oc2cc(O)ccc21 [DAF, 5-(N-dodecanoyl)-amino-fluorescein] the Kd ([4]; HEPES pH 8.1, 25 °C, ± s.d., read-out: KD (nM) for binding of DAF to AeOBP22) was 1190 ± 261 nM, the Kd ([4]; read-out: KD of DAF for AeOBP22) was 1190 nM and the “quenching of DAF fluorescence upon addition of AeOBP22 (reduction from maximal intensity)” value ([4]; emission maximum 513 nm) was ~ 75%.

In the case of O=Cc1ccccc1 [benzaldehyde], the “ligand concentration at which large NMR chemical shift changes occur” value [2] is reported as greater than 1 mM and the “binding to AeOBP22 judged by NMR” value [2] is reported as “binding is weak”.

With CC(C)=CCCC(C)CCO (centres unmarked) [citronellol] the “ligand concentration at which large NMR chemical shift changes occur” value [2] was greater than 1 mM and the “binding to AeOBP22 judged by NMR” value [2] was “binding is weak”.

For CC(C)=CCC/C(C)=C/CO [geraniol], the “ligand concentration at which large NMR chemical shift changes occur” value [2] was greater than 1 mM and the “binding to AeOBP22 judged by NMR” value [2] was “binding is weak”.

In the case of CC/C=C\C/C=C\C/C=C\CCCCCCCC(=O)O [αC18:3, a-Linoleic acid C18:3 (D9,12,15)], the Ki ([5]; pH 5, n = 2, read-out: KI (dissociation constant of the competitor) at pH 5) is reported as 42 ± 14 nM, the Kd ([5]; pH 5.0, ± s.d., n = 2, read-out: KD (nM) for binding of fatty acid to AeOBP22 at pH 5.0) is reported as 42 ± 14 nM and the Kd ([5]; pH 6.5 as printed, read-out: binding affinity at pH 6.5 (as printed in text)) is reported as 52 ± 8 nM. The Kd [3, 6] was 52 ± 8 nM and the Ki [3, 8] was 52 ± 8 nM.

In the case of CCCCC/C=C\C/C=C\C/C=C\CCCCC(=O)O [γC18:3, g-Linoleic acid C18:3 (D6 ,9,12)], the Kd [3, 6] is reported as 111 ± 27 nM and the Ki [3, 8] is reported as 111 ± 27 nM.

In the case of Eicosenoic acid [C20:1], the Kd [3, 6] is reported as 102 ± 16 nM and the Ki [3, 8] is reported as 102 ± 16 nM.
